Experiment [1] deals with T1, Sodium/glucose cotransporter 1 (Homo sapiens, UniProt P13866).
T1 sequence (P13866 whole entry): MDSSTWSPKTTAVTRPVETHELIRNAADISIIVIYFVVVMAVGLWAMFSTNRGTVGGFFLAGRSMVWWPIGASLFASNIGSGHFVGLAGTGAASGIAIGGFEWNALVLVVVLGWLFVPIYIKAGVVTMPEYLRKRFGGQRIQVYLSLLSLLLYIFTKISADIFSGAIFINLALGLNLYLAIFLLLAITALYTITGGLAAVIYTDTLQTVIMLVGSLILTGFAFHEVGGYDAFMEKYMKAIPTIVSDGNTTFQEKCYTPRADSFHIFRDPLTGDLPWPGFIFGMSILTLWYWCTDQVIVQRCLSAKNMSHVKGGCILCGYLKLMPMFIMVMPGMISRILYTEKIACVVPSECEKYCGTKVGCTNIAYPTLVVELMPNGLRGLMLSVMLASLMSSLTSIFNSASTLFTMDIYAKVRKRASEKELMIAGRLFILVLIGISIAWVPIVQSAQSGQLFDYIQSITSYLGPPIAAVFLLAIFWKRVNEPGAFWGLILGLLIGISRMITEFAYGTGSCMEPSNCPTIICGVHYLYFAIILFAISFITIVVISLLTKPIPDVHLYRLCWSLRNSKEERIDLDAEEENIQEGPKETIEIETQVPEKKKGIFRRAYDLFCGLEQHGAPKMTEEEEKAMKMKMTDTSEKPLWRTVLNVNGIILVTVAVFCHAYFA
Put plainly: (§1) These cell lines transport 14C-labelled alpha-methyl-glucopyranoside (14C-AMG, Amersham) into the interior of the cell in sodium-dependent manner.The SGLT-2 assay is carried out as follows: CHO-hSGLT2 cells are cultivated in Ham's F12 Medium (BioWhittaker) with 10% foetal calf serum and 250 ug/mL zeocin (Invitrogen), and HEK293-hSGLT2 cells are cultivated in DMEM medium with 10% foetal calf serum and 250 ug/mL zeocin (Invitrogen). The cells are detached from the culture flasks by washing twice with PBS. The class given is cell-based.

Experiment [2] addresses T2, Sodium/glucose cotransporter 2 (Homo sapiens, UniProt P31639).
T2 sequence (P31639 whole entry): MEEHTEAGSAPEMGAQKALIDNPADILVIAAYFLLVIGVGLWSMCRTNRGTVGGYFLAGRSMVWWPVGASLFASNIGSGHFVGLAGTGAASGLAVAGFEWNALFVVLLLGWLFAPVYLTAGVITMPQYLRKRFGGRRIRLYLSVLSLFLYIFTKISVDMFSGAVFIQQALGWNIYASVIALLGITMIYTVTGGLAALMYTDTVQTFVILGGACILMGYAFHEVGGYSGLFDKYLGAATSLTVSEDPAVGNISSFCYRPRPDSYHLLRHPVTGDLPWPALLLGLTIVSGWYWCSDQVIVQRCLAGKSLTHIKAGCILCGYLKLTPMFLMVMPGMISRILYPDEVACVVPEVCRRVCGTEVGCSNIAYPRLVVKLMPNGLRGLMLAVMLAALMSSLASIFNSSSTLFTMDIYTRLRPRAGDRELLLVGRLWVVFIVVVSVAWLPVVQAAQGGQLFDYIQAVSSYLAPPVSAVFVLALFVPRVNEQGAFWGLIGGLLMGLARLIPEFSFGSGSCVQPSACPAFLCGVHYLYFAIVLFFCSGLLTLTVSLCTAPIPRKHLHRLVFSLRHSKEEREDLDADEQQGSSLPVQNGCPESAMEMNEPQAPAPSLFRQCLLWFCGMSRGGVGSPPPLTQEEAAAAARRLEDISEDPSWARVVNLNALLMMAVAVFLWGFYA
The experiment is described as §1. The class given is cell-based.

Each structure is given as a SMILES string.

Among the data in ChEMBL document CHEMBL3639144, “Glycoside derivatives and uses thereof” (2013) are IC50 values, retold here.

Turning to `CCc1ccc([C@@H]2O[C@H](COC(=O)OC(C)(C)C)[C@@H](O)[C@H](O)[C@H]2O)cc1Cc1ccc2c(c1)OCCO2`, the concentration for half-maximal inhibition (IC50) in experiment [1] came to 188 nM; in experiment [2], 89 nM.

Consider `CCc1ccc([C@@H]2O[C@H](COP(=O)(O)O)[C@@H](O)[C@H](O)[C@H]2O)cc1Cc1ccc2c(c1)OCCO2`, for which the IC50 in experiment [1] came to 89.3 nM; in experiment [2] it was 2.4 nM.

For orientation: IC50 means the concentration that inhibits the measured activity by half.
